Experiments:
Format in all cases: in vivo
corn (Zea mays) = assay: Test A postemergence; settings: Zea mays, post-emergence, 240 h, 125 g ai/ha, postemergence; visual injury after approximately 10 d; 0 to 100 scale (0 no effect, 100 complete control)
Procedure, shortened: (§1)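 In a loam soil and sand blend, planted seeds got a preemergence directed soil spray, and young plants at the one- to two-leaf stage, 2–10 cm high, got a postemergence application; ~10 d greenhouse hold; injury rated visually, 0 = none, 100 = complete control.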

[1] = tested on: giant foxtail (Setaria faberii); assay: Test A postemergence; settings: Setaria faberi, post-emergence, 240 h, 125 g ai/ha, postemergence; visual injury after approximately 10 d; 0 to 100 scale (0 no effect, 100 complete control); read-out: Plant response rating, Foxtail, Giant
Procedure, shortened: as §1

[2] = tested on: pigweed (Amaranthus retroflexus); assay: Test A postemergence; settings: Amaranthus retroflexus, post-emergence, 240 h, 125 g ai/ha, postemergence; visual injury after approximately 10 d; 0 to 100 scale (0 no effect, 100 complete control); read-out: Plant response rating, Pigweed
Procedure, shortened: as §1

Kochia (Kochia scoparia) [3] = assay: Test A postemergence; settings: Bassia scoparia, post-emergence, 240 h, 125 g ai/ha, postemergence; visual injury after approximately 10 d; 0 to 100 scale (0 no effect, 100 complete control); read-out: Plant response rating, Kochia
Procedure, shortened: as §1

[4] = tested on: Galium (catchweed bedstraw, Galium aparine); assay: Test A postemergence; settings: Galium, post-emergence, 240 h, 125 g ai/ha, postemergence; visual injury after approximately 10 d; 0 to 100 scale (0 no effect, 100 complete control); read-out: Plant response rating, Galium
Procedure, shortened: as §1

[5] = tested on: blackgrass (Alopecurus myosuroides); assay: Test A postemergence; settings: Alopecurus myosuroides, post-emergence, 240 h, 125 g ai/ha, postemergence; visual injury after approximately 10 d; 0 to 100 scale (0 no effect, 100 complete control); read-out: Plant response rating, Blackgrass
Procedure, shortened: as §1

[6] = tested on: ragweed (common ragweed, Ambrosia elatior); assay: Test A postemergence; settings: Ambrosia artemisiifolia, post-emergence, 240 h, 125 g ai/ha, postemergence; visual injury after approximately 10 d; 0 to 100 scale (0 no effect, 100 complete control); read-out: Plant response rating, Ragweed
Procedure, shortened: as §1

[7] = tested on: barnyardgrass (Echinochloa crus-galli); assay: Test A postemergence; settings: Echinochloa crus-galli, post-emergence, 240 h, 125 g ai/ha, postemergence; visual injury after approximately 10 d; 0 to 100 scale (0 no effect, 100 complete control); read-out: Plant response rating, Barnyardgrass
Procedure, shortened: as §1

[8] = tested on: ryegrass, Italian (Italian ryegrass, Lolium multiflorum); assay: Test A postemergence; settings: Lolium multiflorum, post-emergence, 240 h, 125 g ai/ha, postemergence; visual injury after approximately 10 d; 0 to 100 scale (0 no effect, 100 complete control); read-out: Plant response rating, Ryegrass, Italian
Procedure, shortened: as §1

[9] = tested on: wheat (Triticum aestivum); assay: Test A postemergence; settings: Triticum aestivum, post-emergence, 240 h, 125 g ai/ha, postemergence; visual injury after approximately 10 d; 0 to 100 scale (0 no effect, 100 complete control); read-out: Plant response rating, Wheat
Procedure, shortened: as §1

[10] = tested on: giant foxtail (Setaria faberii); assay: Test A preemergence; settings: Setaria faberi, pre-emergence, 240 h, preemergence, read-out: Plant response rating, Foxtail, Giant; for pest or weed control at 125 g/ha: 125 g ai/ha, visual rating after approx. 10 d, 0 to 100 scale where 0 is no effect and 100 is complete control; for pest or weed control at 500 g/ha: 500 g ai/ha, 0 to 100 scale, 0 = no effect, 100 = complete control
Procedure, shortened: as §1

Kochia (Kochia scoparia) [11] = assay: Test A preemergence; settings: Bassia scoparia, pre-emergence, 240 h, preemergence, read-out: Plant response rating, Kochia; for pest or weed control at 125 g/ha: 125 g ai/ha, visual rating after approx. 10 d, 0 to 100 scale where 0 is no effect and 100 is complete control; for pest or weed control at 500 g/ha: 500 g ai/ha, 0 to 100 scale, 0 = no effect, 100 = complete control
Procedure, shortened: as §1

[12] = tested on: ragweed (common ragweed, Ambrosia elatior); assay: Test A preemergence; settings: Ambrosia artemisiifolia, pre-emergence, 240 h, preemergence, read-out: Plant response rating, Ragweed; for pest or weed control at 125 g/ha: 125 g ai/ha, visual rating after approx. 10 d, 0 to 100 scale where 0 is no effect and 100 is complete control; for pest or weed control at 500 g/ha: 500 g ai/ha, 0 to 100 scale, 0 = no effect, 100 = complete control
Procedure, shortened: as §1

[13] = tested on: barnyardgrass (Echinochloa crus-galli); assay: Test A preemergence; settings: Echinochloa crus-galli, pre-emergence, 240 h, preemergence, read-out: Plant response rating, Barnyardgrass; for pest or weed control at 125 g/ha: 125 g ai/ha, visual rating after approx. 10 d, 0 to 100 scale where 0 is no effect and 100 is complete control; for pest or weed control at 500 g/ha: 500 g ai/ha, 0 to 100 scale, 0 = no effect, 100 = complete control
Procedure, shortened: as §1

[14] = tested on: ryegrass, Italian (Italian ryegrass, Lolium multiflorum); assay: Test A preemergence; settings: Lolium multiflorum, pre-emergence, 240 h, preemergence, read-out: Plant response rating, Ryegrass, Italian; for pest or weed control at 125 g/ha: 125 g ai/ha, visual rating after approx. 10 d, 0 to 100 scale where 0 is no effect and 100 is complete control; for pest or weed control at 500 g/ha: 500 g ai/ha, 0 to 100 scale, 0 = no effect, 100 = complete control
Procedure, shortened: as §1

Compound	Corn plant response rating (crop injury, 0 = no effect, 100 = complete kill) at 125 g/ha (corn (Zea mays)) [%]	pest or weed control at 125 g/ha [1] [%]	pest or weed control at 125 g/ha [2] [%]	pest or weed control at 125 g/ha (Kochia (Kochia scoparia) [3]) [%]	pest or weed control at 125 g/ha [4] [%]	pest or weed control at 125 g/ha [5] [%]	pest or weed control at 125 g/ha [6] [%]	pest or weed control at 125 g/ha [7] [%]	pest or weed control at 125 g/ha [8] [%]	plant injury at 125 g/ha [9] [%]	pest or weed control at 125 g/ha [10] [%]	pest or weed control at 500 g/ha [10] [%]	pest or weed control at 125 g/ha (Kochia (Kochia scoparia) [11]) [%]	pest or weed control at 500 g/ha (Kochia (Kochia scoparia) [11]) [%]	pest or weed control at 125 g/ha [12] [%]	pest or weed control at 500 g/ha [12] [%]	pest or weed control at 125 g/ha [13] [%]	pest or weed control at 500 g/ha [13] [%]	pest or weed control at 125 g/ha [14] [%]	pest or weed control at 500 g/ha [14] [%]
C=CCN1C[C@H](c2ccc(OC)c(F)c2)[C@@H](C(=O)Nc2cccc(F)c2F)C1=O [Compound 722]	0	0	0	0	0	0	0	20	0	0	50	80	0	0	0	0	20	80	0	0
C=CCN1C[C@H](c2ccc(OC)c(F)c2)[C@@H](C(=O)Nc2ccccc2S(C)(=O)=O)C1=O [Compound 724]	0	0	0	0	0	0	0	0	0	0	0	0	0	0	0	0	0	0	0	0
Cc1cc([C@H]2CNC(=O)[C@@H]2C(=O)Nc2ccc(F)cc2F)ccc1Br [Compound 725]	0	0	0	0	20	0	0	70	0	0	90	90	0	50	0	0	90	90	0	20
CN1C[C@H](c2ccc(C(F)(F)F)cc2)[C@@H](C(=O)Nc2ccccc2C(F)(F)F)C1=O [Compound 726]	60	90	50	30	50	50	30	90	40	30	90	90	70	90	30	50	90	90	50	80

— patent US12077503B2, “Substituted cyclic amides and their use as herbicides” (FMC CORPORATION, priority 2015, dated 2024)
